Experimental data as given in article PMC8896928, “Preparation, Characterization, and Preliminary Imaging Study of [^188Re]Re-Ibandronate as a Novel Theranostic Radiopharmaceutical for Bone Metastasis” (Contrast Media & Molecular Imaging, 2022).
Read-outs that look alike come from different tables or passages of the source.

Tests used:
Kunming mice = tested on: Kunming mice
Procedure: Sixteen Kunming mice were randomly divided into four groups (equal number of males and females): normal control group and low-, middle-, and high-dose [^188Re]Re-IBA groups. The control group was injected with 0.9% NaCl, and the experimental groups were injected with [^188Re]Re-IBA solution of 3.7 MBq, 18.5 MBq, and 37 MBq, respectively. The body weight and general condition of the mice in each group were measured. After 4 weeks, the blood of the mice in each group was drawn for routine blood examination and liver and kidney function. A pathological examination of important tissue and organs was performed.
SPSS 26.0 was used for statistical analysis, and the quantitative data were expressed as mean ± standard deviation ( χ¯ ± s). In the toxicity test, repeated-measures analysis of variance was used to compare the body weight of mice in each group. P < 0.05 was considered statistically significant.

[1] = tested on: nude mice of bone metastasis model (PC-3, MDA-MB-231, left tibia)
Procedure: (§1) The nude mice of the bone metastasis model were established by tibial bone marrow injection. The specific methods were as follows: 25 μL of prostate cancer PC-3 and breast cancer MDA-MB-231 cell culture medium were injected into the left tibial bone marrow cavity of healthy male and female nude mice, respectively. At approximately 3-4 weeks after inoculation, they were scanned by microcomputed tomography (CT, SIEMENS InveonTM, Munich, Germany) to determine the condition of the model. […] Bone metastases were initially evaluated by CT and confirmed by pathology after the completion of related studies.
Ten PC-3 and ten MDA-MB-231 nude mice with bone metastasis were randomly divided into five groups. The mice were sacrificed by CO2 asphyxiation at 1 h, 3 h, 6 h, 24 h, and 48 h. The important tissue and organ samples were collected for the biodistribution study.

[2] = tested on: nude mice of bone metastasis model (PC-3, MDA-MB-231, left tibia); settings: for ROI ratio of model bone/contralateral bone (mean): bone imaging
Procedure: as §1
The nude mice were injected with [^18F]F-sodium fluoride (NaF), [^99mTc]Tc-methylene diphosphonate (MDP), and [^188Re]Re-IBA at the first, second, and fifth days, respectively, for bone imaging. […]/computed tomography (PET/CT) acquisition equipment was SIEMENS InveonTM. Single-photon emission computed tomography/computed tomography (SPECT/CT) acquisition equipment was GE SPECT, pinhole collimator.

**Q.** What does the source list for `CCCCCN(C)CCC1(O)P(=O)(O)[O][188Re]2([OH])([OH])([O]P1(=O)O)[O]P(=O)(O)C(O)(CCN(C)CCCCC)P(=O)(O)[O]2` (stereo not shown) [[^188Re]Re-IBA]?
**A.** Pathology of important tissues and organs vs normal control (Kunming mice; 3.7, 18.5, 37 MBq, 4 weeks): no abnormal pathological changes; Routine blood and liver and kidney function examination (mean values) (Kunming mice; 3.7, 18.5, 37 MBq, 4 weeks): within the normal reference range; Adverse reactions (Kunming mice; 3.7, 18.5, 37 MBq, within 4 weeks): no adverse reactions; Body weight vs other groups (Kunming mice; high-dose group 37 MBq, 4 weeks): inhibited the weight gain of mice to a certain extent; Body weight vs control group (Kunming mice; low-dose group 3.7 MBq, 4 weeks): no significant difference in weight; Body weight vs control group (Kunming mice; medium-dose group 18.5 MBq, 4 weeks): no significant difference in weight; %ID/g Blood ([1]; 1 h): 1.704 ± 0.348 %ID/g; %ID/g Brain ([1]; 1 h): 0.098 ± 0.046 %ID/g; %ID/g CB (contralateral bone) ([1]; 1 h): 9.331 ± 0.541 %ID/g; %ID/g CS (contralateral muscle) ([1]; 1 h): 0.578 ± 0.043 %ID/g; %ID/g Gonad ([1]; 1 h): 0.439 ± 0.162 %ID/g; %ID/g Heart ([1]; 1 h): 0.595 ± 0.099 %ID/g; %ID/g Kidney ([1]; 1 h): 6.004 ± 0.523 %ID/g; %ID/g Liver ([1]; 1 h): 1.236 ± 0.219 %ID/g; %ID/g Lung ([1]; 1 h): 1.135 ± 0.209 %ID/g; %ID/g MB (model bone) ([1]; 1 h): 8.329 ± 0.329 %ID/g; %ID/g Small intestine ([1]; 1 h): 0.718 ± 0.073 %ID/g; %ID/g Spleen ([1]; 1 h): 0.530 ± 0.124 %ID/g; %ID/g Stomach ([1]; 1 h): 3.056 ± 0.321 %ID/g; %ID/g Thyroid gland ([1]; 1 h): 0.625 ± 0.309 %ID/g; CB/CS ratio ([1]; 1 h): 16.144; CB/heart ratio ([1]; 1 h): 15.682; CB/liver ratio ([1]; 1 h): 7.549; MB/CB ratio ([1]; 1 h): 0.893; MB/CS ratio ([1]; 1 h): 14.411; MB/heart ratio ([1]; 1 h): 14.003; MB/liver ratio ([1]; 1 h): 6.738; %ID/g Blood ([1]; 3 h): 0.531 ± 0.092 %ID/g; %ID/g Brain ([1]; 3 h): 0.082 ± 0.017 %ID/g; %ID/g CB (contralateral bone) ([1]; 3 h): 7.717 ± 4.349 %ID/g; %ID/g CS (contralateral muscle) ([1]; 3 h): 0.524 ± 0.172 %ID/g; %ID/g Gonad ([1]; 3 h): 0.231 ± 0.068 %ID/g; %ID/g Heart ([1]; 3 h): 0.326 ± 0.175 %ID/g; %ID/g Kidney ([1]; 3 h): 2.591 ± 1.120 %ID/g; %ID/g Liver ([1]; 3 h): 0.431 ± 0.312 %ID/g; %ID/g Lung ([1]; 3 h): 0.298 ± 0.250 %ID/g; %ID/g MB (model bone) ([1]; 3 h): 5.922 ± 2.126 %ID/g; %ID/g Small intestine ([1]; 3 h): 0.404 ± 0.047 %ID/g; %ID/g Spleen ([1]; 3 h): 0.227 ± 0.141 %ID/g; %ID/g Stomach ([1]; 3 h): 2.064 ± 0.207 %ID/g; %ID/g Thyroid gland ([1]; 3 h): 0.282 ± 0.149 %ID/g; CB/CS ratio ([1]; 3 h): 14.731; CB/heart ratio ([1]; 3 h): 23.637; CB/liver ratio ([1]; 3 h): 17.896; MB/CB ratio ([1]; 3 h): 0.767; MB/CS ratio ([1]; 3 h): 11.305; MB/heart ratio ([1]; 3 h): 18.139; MB/liver ratio ([1]; 3 h): 13.734; %ID/g Blood ([1]; 6 h): 0.302 ± 0.092 %ID/g; %ID/g Brain ([1]; 6 h): 0.042 ± 0.042 %ID/g; %ID/g CB (contralateral bone) ([1]; 6 h): 7.662 ± 2.934 %ID/g; %ID/g CS (contralateral muscle) ([1]; 6 h): 0.153 ± 0.083 %ID/g; %ID/g Gonad ([1]; 6 h): 0.106 ± 0.022 %ID/g; %ID/g Heart ([1]; 6 h): 0.183 ± 0.097 %ID/g; %ID/g Kidney ([1]; 6 h): 2.587 ± 0.126 %ID/g; %ID/g Liver ([1]; 6 h): 0.368 ± 0.054 %ID/g; %ID/g Lung ([1]; 6 h): 0.257 ± 0.030 %ID/g; %ID/g MB (model bone) ([1]; 6 h): 8.417 ± 1.820 %ID/g; %ID/g Small intestine ([1]; 6 h): 0.242 ± 0.118 %ID/g; %ID/g Spleen ([1]; 6 h): 0.176 ± 0.029 %ID/g; %ID/g Stomach ([1]; 6 h): 1.176 ± 0.190 %ID/g; %ID/g Thyroid gland ([1]; 6 h): 0.354 ± 0.217 %ID/g; CB/CS ratio ([1]; 6 h): 50.044; CB/heart ratio ([1]; 6 h): 41.876; CB/liver ratio ([1]; 6 h): 20.818; MB/CB ratio ([1]; 6 h): 1.099; MB/CS ratio ([1]; 6 h): 54.970; MB/heart ratio ([1]; 6 h): 45.999; MB/liver ratio ([1]; 6 h): 22.867; %ID/g Blood ([1]; 24 h): 0.045 ± 0.020 %ID/g; %ID/g Brain ([1]; 24 h): 0.037 ± 0.020 %ID/g; %ID/g CB (contralateral bone) ([1]; 24 h): 4.413 ± 2.225 %ID/g; %ID/g CS (contralateral muscle) ([1]; 24 h): 0.081 ± 0.050 %ID/g; %ID/g Gonad ([1]; 24 h): 0.069 ± 0.018 %ID/g; %ID/g Heart ([1]; 24 h): 0.052 ± 0.027 %ID/g; %ID/g Kidney ([1]; 24 h): 0.640 ± 0.175 %ID/g; %ID/g Liver ([1]; 24 h): 0.089 ± 0.027 %ID/g; %ID/g Lung ([1]; 24 h): 0.101 ± 0.038 %ID/g; %ID/g MB (model bone) ([1]; 24 h): 6.403 ± 0.247 %ID/g; %ID/g Small intestine ([1]; 24 h): 0.049 ± 0.003 %ID/g; %ID/g Spleen ([1]; 24 h): 0.066 ± 0.024 %ID/g; %ID/g Stomach ([1]; 24 h): 0.192 ± 0.092 %ID/g; %ID/g Thyroid gland ([1]; 24 h): 0.082 ± 0.030 %ID/g; CB/CS ratio ([1]; 24 h): 54.620; CB/heart ratio ([1]; 24 h): 85.157; CB/liver ratio ([1]; 24 h): 49.848; MB/CB ratio ([1]; 24 h): 1.451; MB/CS ratio ([1]; 24 h): 79.255; MB/heart ratio ([1]; 24 h): 123.563; MB/liver ratio ([1]; 24 h): 72.330; %ID/g Blood ([1]; 48 h): 0.021 ± 0.008 %ID/g; %ID/g Brain ([1]; 48 h): 0.021 ± 0.009 %ID/g; %ID/g CB (contralateral bone) ([1]; 48 h): 4.737 ± 0.863 %ID/g; %ID/g CS (contralateral muscle) ([1]; 48 h): 0.041 ± 0.022 %ID/g; %ID/g Gonad ([1]; 48 h): 0.028 ± 0.001 %ID/g; %ID/g Heart ([1]; 48 h): 0.035 ± 0.013 %ID/g; %ID/g Kidney ([1]; 48 h): 0.121 ± 0.034 %ID/g; %ID/g Liver ([1]; 48 h): 0.044 ± 0.013 %ID/g; %ID/g Lung ([1]; 48 h): 0.047 ± 0.005 %ID/g; %ID/g MB (model bone) ([1]; 48 h): 6.503 ± 0.010 %ID/g; %ID/g Small intestine ([1]; 48 h): 0.030 ± 0.018 %ID/g; %ID/g Spleen ([1]; 48 h): 0.022 ± 0.013 %ID/g; %ID/g Stomach ([1]; 48 h): 0.027 ± 0.019 %ID/g; %ID/g Thyroid gland ([1]; 48 h): 0.020 ± 0.010 %ID/g; CB/CS ratio ([1]; 48 h): 115.161; CB/heart ratio ([1]; 48 h): 133.599; CB/liver ratio ([1]; 48 h): 106.617; MB/CB ratio ([1]; 48 h): 1.373; MB/CS ratio ([1]; 48 h): 158.088; MB/heart ratio ([1]; 48 h): 183.399; MB/liver ratio ([1]; 48 h): 146.359; Bone imaging, uptake in the model side vs control side ([2]; 1–3 h after injection, concentration mainly in surrounding soft tissue): higher than that of the control side; ROI ratio of model bone/contralateral bone (mean) ([2]; 6 h): 1.245; ROI ratio of model bone/contralateral bone (mean) ([2]; 16 h): 1.633; ROI ratio of model bone/contralateral bone (mean) ([2]; 32 h): 1.529
